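Where inhibition never reached the appropriate level, the endpoint shown equals the highest concentration tested. Otherwise, values were interpolated linearly from a five-concentration, 48-hour dose response in 96-well plates. GI50 marks 50% less growth.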 Active and inactive are the calls of the source. Cut-off read from the data, not from the text of the source: active = GI50 up to about 1.1 µM and inactive = higher.
Assays:
Assay in all cases: DTP human tumour cell line panel, 48 h
MOLT-4 = system: MOLT-4
SW-620 = system: SW-620
HCC 2998 = system: HCC 2998
SK-OV-3 = system: SK-OV-3
CAKI-1 = system: CAKI-1
SF-268 = system: SF-268
A549 = system: A549
OVCAR-4 = system: OVCAR-4
HL-60 = system: HL-60
SK-MEL-5 = system: SK-MEL-5
SR = system: SR
HCT-15 = system: HCT-15
OVCAR-8 = system: OVCAR-8
A498 = system: A498
COLO 205 = system: COLO 205
DU-145 = system: DU-145

Compound	GI50 (MOLT-4)	GI50 (SW-620)	GI50 (HCC 2998)	GI50 (SK-OV-3)	GI50 (CAKI-1)	GI50 (SF-268)	GI50 (A549)	GI50 (OVCAR-4)	GI50 (HL-60)	GI50 (SK-MEL-5)	GI50 (SR)	GI50 (HCT-15)	GI50 (OVCAR-8)	GI50 (A498)	GI50 (COLO 205)	GI50 (DU-145)
O=[N+]([O-])c1ccc(-c2ccc(-c3csc(Nc4ccccc4)n3)o2)cc1	3.62 µM (inactive)	15.6 µM (inactive)	25.1 µM (inactive)	> 100 µM (inactive)	20.6 µM (inactive)	18.2 µM (inactive)	> 55 µM (inactive)	17.3 µM (inactive)	2.48 µM (inactive)	19.5 µM (inactive)	1.9 µM (inactive)	19.7 µM	19.5 µM (inactive)	17.9 µM (inactive)	20.9 µM (inactive)	–
COC(=O)/C=C1\CCC2[C@@H](C(=O)CC3[C@]2(C)CCC[C@@]3(C)C(=O)OC)C1C (stereo not given in full)	6.37 µM (inactive)	26.6 µM (inactive)	34.6 µM (inactive)	37.9 µM (inactive)	30.1 µM (inactive)	19.7 µM (inactive)	20.2 µM (inactive)	22.5 µM (inactive)	13.1 µM (inactive)	13.5 µM (inactive)	–	29.8 µM	15.1 µM (inactive)	34.7 µM (inactive)	17.3 µM (inactive)	–
O=C(Nc1ccc(Cl)c(C(F)(F)F)c1)C(=O)C(C(=O)/C=C/c1ccccc1)C1OC(=O)c2ccccc21 (stereo not given)	> 100 µM (inactive)	> 100 µM (inactive)	> 100 µM (inactive)	> 100 µM (inactive)	> 100 µM (inactive)	> 100 µM (inactive)	> 100 µM (inactive)	> 100 µM (inactive)	> 100 µM (inactive)	–	> 100 µM (inactive)	> 100 µM	> 100 µM (inactive)	> 100 µM (inactive)	> 100 µM (inactive)	–
COC(=O)NN=C1C(C)(C)C(=O)C1(C)C	> 100 µM (inactive)	> 100 µM (inactive)	> 100 µM (inactive)	> 100 µM (inactive)	–	> 100 µM (inactive)	> 100 µM (inactive)	–	> 100 µM (inactive)	> 100 µM (inactive)	–	–	> 100 µM (inactive)	> 100 µM (inactive)	> 100 µM (inactive)	–
O=C1C2Nc3ccccc3SC2C(=O)N1c1ccccc1C(F)(F)F (stereo not given)	23.2 µM (inactive)	21.4 µM (inactive)	16.7 µM (inactive)	23.7 µM (inactive)	24.9 µM (inactive)	41.1 µM (inactive)	20.2 µM (inactive)	43.1 µM (inactive)	5.19 µM (inactive)	12 µM (inactive)	32.7 µM (inactive)	15.9 µM	33.7 µM (inactive)	–	–	–
[O-]c1c2c(nn1-c1ccc(Cl)cc1)c1ccccc1c[n+]2Cc1ccccc1	> 100 µM (inactive)	> 100 µM (inactive)	> 100 µM (inactive)	40.2 µM (inactive)	> 100 µM (inactive)	95.3 µM (inactive)	63.4 µM (inactive)	46.2 µM (inactive)	> 100 µM (inactive)	58.7 µM (inactive)	> 100 µM (inactive)	–	65.9 µM (inactive)	–	> 100 µM (inactive)	–
N=C(N)N/N=C(/c1nc2ccc([N+](=O)[O-])cc2[nH]c1=O)C(O)c1ccc([N+](=O)[O-])cc1 (stereo not given)	> 100 µM (inactive)	> 100 µM (inactive)	28.5 µM (inactive)	> 100 µM (inactive)	28.4 µM (inactive)	> 100 µM (inactive)	60.8 µM (inactive)	> 100 µM (inactive)	> 100 µM (inactive)	37.5 µM (inactive)	> 100 µM (inactive)	11.5 µM	> 100 µM (inactive)	–	79.8 µM (inactive)	–
O=C1[C@@H]2C(c3ccccc3[N+](=O)[O-])=[N+](c3ccccc3)O[C@@H]2C(=O)N1c1ccc(Cc2ccc(N3C(=O)[C@H]4C(c5ccccc5[N+](=O)[O-])=[N+](c5ccccc5)O[C@H]4C3=O)cc2)cc1	> 100 µM (inactive)	> 100 µM (inactive)	> 100 µM (inactive)	> 100 µM (inactive)	77.8 µM (inactive)	> 100 µM (inactive)	> 100 µM (inactive)	> 100 µM (inactive)	> 100 µM (inactive)	43.1 µM (inactive)	> 100 µM (inactive)	> 100 µM	> 100 µM (inactive)	> 100 µM (inactive)	33.4 µM (inactive)	–
COc1cccc(NC(=O)CC(=O)N2NC(c3ccccc3)C(/N=N/c3cccc(C(=O)O)c3)C2=O)c1 (stereo not given)	86.3 µM (inactive)	> 100 µM (inactive)	> 100 µM (inactive)	> 100 µM (inactive)	89.5 µM (inactive)	> 100 µM (inactive)	> 100 µM (inactive)	> 100 µM (inactive)	–	> 100 µM (inactive)	55.2 µM (inactive)	–	> 100 µM (inactive)	> 100 µM (inactive)	> 10 µM (inactive)	–
C/C(=N/NC(N)=S)C(CN1CCOCC1)C(C1=C(O)c2ccccc2OC1)c1ccccc1 (stereo not given)	39 µM (inactive)	> 100 µM (inactive)	> 100 µM (inactive)	> 100 µM (inactive)	> 100 µM (inactive)	41.8 µM (inactive)	> 100 µM (inactive)	> 100 µM (inactive)	21 µM (inactive)	> 100 µM (inactive)	25.4 µM (inactive)	–	> 100 µM (inactive)	> 100 µM (inactive)	68.9 µM (inactive)	> 100 µM (inactive)
CC(=O)OC1[C@H]2c3cc4c(cc3CN3CCC(C[C@@H]1OC(C)=O)C23)OCO4 (stereo not given in full)	> 75 µM (inactive)	> 75 µM (inactive)	> 75 µM (inactive)	> 75 µM (inactive)	–	> 75 µM (inactive)	> 75 µM (inactive)	–	> 75 µM (inactive)	–	> 75 µM (inactive)	> 75 µM	> 75 µM (inactive)	–	> 75 µM (inactive)	–
COc1ccc(NCC#N)cc1	> 100 µM (inactive)	> 100 µM (inactive)	> 100 µM (inactive)	> 100 µM (inactive)	–	> 100 µM (inactive)	> 100 µM (inactive)	–	52.8 µM (inactive)	> 100 µM (inactive)	> 100 µM (inactive)	> 100 µM	> 100 µM (inactive)	> 100 µM (inactive)	> 100 µM (inactive)	–
O=[N+]([O-])c1ccc(Cc2nc3ccccc3s2)cc1	75.2 µM (inactive)	59.3 µM (inactive)	> 100 µM (inactive)	> 100 µM (inactive)	> 100 µM (inactive)	74.1 µM (inactive)	> 100 µM (inactive)	> 100 µM (inactive)	63.4 µM (inactive)	87.3 µM (inactive)	46 µM (inactive)	> 100 µM	91.4 µM (inactive)	> 100 µM (inactive)	> 100 µM (inactive)	–
COc1cc([C@@H]2c3cc4c(cc3[C@@H](NC(=O)c3ccc(C#N)cc3)C3COC(=O)[C@@H]32)OCO4)cc(OC)c1O (stereo not given in full)	3.63 µM (inactive)	0.331 µM (active)	1.6 µM (inactive)	0.374 µM (active)	1.14 µM (inactive)	0.847 µM (active)	< 0.01 µM (active)	8.93 µM (inactive)	0.138 µM (active)	0.743 µM (active)	–	2.28 µM	0.719 µM (active)	1.02 µM (active)	2.94 µM (inactive)	–
CSC(C1c2ccccc2N(C)c2[nH]c(=O)n(C)c(=O)c21)S(=O)(=O)c1ccc(C)cc1 (stereo not given)	40 µM (inactive)	> 100 µM (inactive)	> 100 µM (inactive)	> 100 µM (inactive)	> 100 µM (inactive)	> 100 µM (inactive)	> 100 µM (inactive)	> 100 µM (inactive)	50.2 µM (inactive)	> 100 µM (inactive)	–	64.3 µM	> 100 µM (inactive)	> 100 µM (inactive)	> 100 µM (inactive)	–
Cn1cc2c(n1)c(N/N=C/c1ccccc1)nn1nnnc21	> 100 µM (inactive)	> 100 µM (inactive)	> 100 µM (inactive)	> 100 µM (inactive)	> 100 µM (inactive)	> 100 µM (inactive)	> 100 µM (inactive)	> 100 µM (inactive)	> 100 µM (inactive)	> 100 µM (inactive)	> 100 µM (inactive)	> 100 µM	> 100 µM (inactive)	> 100 µM (inactive)	> 100 µM (inactive)	–
CCOC(=O)/C(=C\c1cccs1)P(=O)(OCC)OCC	25.8 µM (inactive)	20 µM (inactive)	18.4 µM (inactive)	38.9 µM (inactive)	18.2 µM (inactive)	24.1 µM (inactive)	21 µM (inactive)	19 µM (inactive)	13.9 µM (inactive)	17 µM (inactive)	19.1 µM (inactive)	17.5 µM	25.4 µM (inactive)	–	16 µM (inactive)	–
O=C(CSc1nnc(Cc2ccccc2)o1)Nc1ccc([N+](=O)[O-])cc1	87.3 µM (inactive)	–	> 100 µM (inactive)	> 100 µM (inactive)	–	> 100 µM (inactive)	59.4 µM (inactive)	> 100 µM (inactive)	14.1 µM (inactive)	> 100 µM (inactive)	–	> 100 µM	> 100 µM (inactive)	> 100 µM (inactive)	> 100 µM (inactive)	–
CS/C(=C(\S)c1ccccc1)c1ccccc1	> 10 µM (inactive)	> 100 µM (inactive)	> 100 µM (inactive)	> 100 µM (inactive)	> 100 µM (inactive)	> 100 µM (inactive)	> 100 µM (inactive)	> 87.1 µM (inactive)	> 100 µM (inactive)	> 100 µM (inactive)	50.6 µM (inactive)	> 100 µM	> 100 µM (inactive)	> 100 µM (inactive)	> 100 µM (inactive)	–
